Values of other authors in patent publication US20250262254A1, “THERAPEUTIC COMPOSITIONS AND METHODS OF USING SEROTONIN MODULATING MICROBIOME-BASED INTERVENTIONS TO TREAT SEROTONIN-RELATED DISEASES OR DISORDERS” (HOLOBIOME, INC, priority 2019, published 2025).

System: mouse model
Details: microbiota-derived tryptamine

## NCCc1c[nH]c2ccccc12 [tryptamine]
  GI transit: accelerate GI transit
